Measurements reported in US11297838B2, “Pesticidal compositions and methods” (CORTEVA AGRISCIENCE LLC, priority 2018, dated 2022).

Key:
Assay type in all cases: in vivo
[1] = test system: Cabbage Looper (Trichloplusia ni, TRIPNI); assay: Insecticidal test for cabbage looper (CL), 128-well diet tray assay; details: Trichoplusia ni, 168 h; 50 μg/cm^2 on artificial diet, second instar larvae, five to seven days, 25° C.; read-out: CL rating, % Control (or Mortality)
Method: Insecticidal Test for Cabbage Looper (Trichloplusia ni, TRIPNI) (“CL”)
Bioassays on cabbage looper (CL; Trichloplusia ni: Lepidoptera) are conducted using a 128-well diet tray assay. One to five second instar CL larvae are placed in each well (3 mL) of the diet tray that had been previously filled with 1 mL of artificial diet to which 50 μg/cm^2 of the test compound (dissolved in 50 μL of 90:10 acetone-water mixture) had been applied (to each of eight wells) and then allowed to dry. Trays are covered with a clear self-adhesive cover, vented to allow gas exchange, and held at 25° C., 14:10 light-dark for five to seven days. Percent mortality is recorded for the larvae in each well; activity in the eight wells is then averaged. In the reporting of the results, the “BAW & CL Rating Table” was used.

[2] = test system: Yellow Fever Mosquito (Aedes aegypti, AEDSAE); details: about 1 day-old larvae, 4000 ppm master solution diluted, 3 days, room temperature
Method: Insecticidal Test for Yellow Fever Mosquito (Aedes aegypti, AEDSAE) (“YFM”)
Master plates containing 400 μg of a molecule dissolved in 100 μL of dimethyl sulfoxide (DMSO) (equivalent to a 4000 ppm solution) are used. A master plate of assembled molecules contains 15 μL per well. To this plate, 135 μL of a 90:10 water/acetone mixture is added to each well. A robot (Biomek® NXP Laboratory Automation Workstation) is programmed to dispense 15 μL aspirations from the master plate into an empty 96-well shallow plate (“daughter” plate). There are 6 reps (“daughter” plates) created per master. The created “daughter” plates are then immediately infested with YFM larvae.
The day before plates are to be treated, mosquito eggs are placed in Millipore water containing liver powder to begin hatching (4 g. into 400 mL). After the “daughter” plates are created using the robot, they are infested with 220 μL of the liver powder/larval mosquito mixture (about 1 day-old larvae). After plates are infested with mosquito larvae, a non-evaporative lid is used to cover the plate to reduce drying. Plates are held at room temperature for 3 days prior to grading. After 3 days, each well is observed and scored based on mortality. In the reporting of the results, the “YFM Rating Table” was used.

[3] = test system: Beet Armyworm (Spodoptera exigua, LAPHEG); assay: Insecticidal test for beet armyworm (BAW), 128-well diet tray assay; details: 168 h, 50 μg/cm^2 on artificial diet, second instar larvae, five to seven days, 25° C., read-out: BAW rating, % Control (or Mortality)
Method: Insecticidal Test for Beet Armyworm (Spodoptera exigua, LAPHEG) (“BAW”)
Bioassays on beet armyworm (BAW; Spodoptera exigua: Lepidoptera) are conducted using a 128-well diet tray assay. One to five second instar BAW larvae are placed in each well (3 mL) of the diet tray that had been previously filled with 1 mL of artificial diet to which 50 μg/cm^2 of the test compound (dissolved in 50 μL of 90:10 acetone-water mixture) had been applied (to each of eight wells) and then allowed to dry. Trays are covered with a clear self-adhesive cover, vented to allow gas exchange, and held at 25° C., 14:10 light-dark for five to seven days. Percent mortality is recorded for the larvae in each well; activity in the eight wells is then averaged. In the reporting of the results, the “BAW & CL Rating Table” was used.

| SMILES | mortality at 50 µg/cm2 [1] | YFM rating, % Control (or Mortality) [2] | mortality at 50 µg/cm2 [3] |
| --- | --- | --- | --- |
| CC(C)c1ccccc1N1C(=O)CS/C1=N\C(=O)OCCc1ccc(-c2ncn(-c3ccc(OC(F)(F)F)cc3)n2)cc1 [A2, 4-(1-(4-(Trifluoromethoxy)phenyl)-1H-1,2,4-triazol-3-yl)phenethyl (Z)-(3-(2-isopropylphenyl)-4-oxothiazolidin-2-ylidene)carbamate] | 50 to 100% | A (80-100) | 50 to 100% |
| CCOc1ccccc1N1C(=O)CS/C1=N\C(=O)OCCc1ccc(-c2ncn(-c3ccc(OC(F)(F)F)cc3)n2)cc1 [A5, 4-(1-(4-(Trifluoromethoxy)phenyl)-1H-1,2,4-triazol-3-yl)phenethyl (Z)-(3-(2-ethoxyphenyl)-4-oxothiazolidin-2-ylidene)carbamate] | 50 to 100% | A (80-100) | 0 to 50% |
| CCCCc1ccccc1N1C(=O)CS/C1=N\C(=O)OCCc1ccc(-c2ncn(-c3ccc(OC(F)(F)F)cc3)n2)cc1 [A6, 4-(1-(4-(Trifluoromethoxy)phenyl)-1H-1,2,4-triazol-3-yl)phenethyl (Z)-(3-(2-butylphenyl)-4-oxothiazolidin-2-ylidene)carbamate] | 50 to 100% | A (80-100) | 50 to 100% |
| O=C(/N=C1\SCC(=O)N1c1ccccc1CCC1CC1)OCCc1ccc(-c2ncn(-c3ccc(OC(F)(F)F)cc3)n2)cc1 [A7, 4-(1-(4-(Trifluoromethoxy)phenyl)-1H-1,2,4-triazol-3-yl)phenethyl (Z)-(3-(2-(2-cyclopropylethyl)phenyl)-4-oxothiazolidin-2-ylidene)carbamate] | 50 to 100% | A (80-100) | 0 to 50% |
| O=C(/N=C1\SCC(=O)N1c1ccccc1CCC(F)(F)F)OCCc1ccc(-c2ncn(-c3ccc(OC(F)(F)F)cc3)n2)cc1 [A8, 4-(1-(4-(Trifluoromethoxy)phenyl)-1H-1,2,4-triazol-3-yl)phenethyl (Z)-(4-oxo-3-(2-(3,3,3-trifluoropropyl)phenyl)thiazolidin-2-ylidene)carbamate] | 50 to 100% | A (80-100) | 50 to 100% |
| O=C(/N=C1\SCC(=O)N1c1ccccc1/C=C/C(F)(F)F)OCCc1ccc(-c2ncn(-c3ccc(OC(F)(F)F)cc3)n2)cc1 [A9, 4-(1-(4-(Trifluoromethoxy)phenyl)-1H-1,2,4-triazol-3-yl)phenethyl ((Z)-4-oxo-3-(2-((E)-3,3,3-trifluoroprop-1-en-1-yl)phenyl)thiazolidin-2-ylidene)carbamate] | 50 to 100% | A (80-100) | 50 to 100% |
| COc1ccc(N2C(=O)CS/C2=N\C(=O)OCCc2ccc(-c3ncn(-c4ccc(OC(F)(F)F)cc4)n3)cc2)c(C)c1 [A10, 4-(1-(4-(Trifluoromethoxy)phenyl)-1H-1,2,4-triazol-3-yl)phenethyl (Z)-(3-(4-methoxy-2-methylphenyl)-4-oxothiazolidin-2-ylidene)carbamate] | 50 to 100% | A (80-100) | 0% |
| Cc1ccc(F)c(N2C(=O)CS/C2=N\C(=O)OCCc2ccc(-c3ncn(-c4ccc(OC(F)(F)F)cc4)n3)cc2)c1 [A11, 4-(1-(4-(Trifluoromethoxy)phenyl)-1H-1,2,4-triazol-3-yl)phenethyl (Z)-(3-(2-fluoro-5-methylphenyl)-4-oxothiazolidin-2-ylidene)carbamate] | 50 to 100% | A (80-100) | 0 to 50% |
| Cc1ccc(Cl)c(N2C(=O)CS/C2=N\C(=O)OCCc2ccc(-c3ncn(-c4ccc(OC(F)(F)F)cc4)n3)cc2)c1 [A12, 4-(1-(4-(Trifluoromethoxy)phenyl)-1H-1,2,4-triazol-3-yl)phenethyl (Z)-(3-(2-chloro-5-methylphenyl)-4-oxothiazolidin-2-ylidene)carbamate] | 50 to 100% | A (80-100) | 50 to 100% |
| COc1ccc(C)cc1N1C(=O)CS/C1=N\C(=O)OCCc1ccc(-c2ncn(-c3ccc(OC(F)(F)F)cc3)n2)cc1 [A13, 4-(1-(4-(Trifluoromethoxy)phenyl)-1H-1,2,4-triazol-3-yl)phenethyl (Z)-(3-(2-methoxy-5-methylphenyl)-4-oxothiazolidin-2-ylidene)carbamate] | 50 to 100% | A (80-100) | 50 to 100% |
| CC(C)c1ccc(Cl)cc1N1C(=O)CS/C1=N\C(=O)OCC(Cl)c1ccc(-c2ncn(-c3ccc(OC(F)(F)F)cc3)n2)cc1 (stereo not shown) [A48, 2-Chloro-2-(4-(1-(4-(trifluoromethoxy)phenyl)-1H-1,2,4-triazol-3-yl)phenyl)ethyl (Z)-(3-(5-chloro-2-isopropylphenyl)-4-oxothiazolidin-2-ylidene)carbamate] | 50 to 100% | – | 50 to 100% |
| CCC(C)Oc1ccc(C)cc1N1C(=O)CS/C1=N\C(=O)OC(C)Cc1ccc(-c2ncn(-c3ccc(OC(F)(F)F)cc3)n2)cc1 (stereo not shown) [A49, 1-(4-(1-(4-(Trifluoromethoxy)phenyl)-1H-1,2,4-triazol-3-yl)phenyl)propan-2-yl (Z)-(3-(2-(sec-butoxy)-5-methylphenyl)-4-oxothiazolidin-2-ylidene)carbamate] | 50 to 100% | – | 50 to 100% |
| CC(Cc1ccc(-c2ncn(-c3ccc(OC(F)(F)F)cc3)n2)cc1)OC(=O)/N=C1\SCC(=O)N1c1ccccc1C(C)C (stereo not shown) [A50, 1-(4-(1-(4-(Trifluoromethoxy)phenyl)-1H-1,2,4-triazol-3-yl)phenyl)propan-2-yl (Z)-(3-(2-isopropylphenyl)-4-oxothiazolidin-2-ylidene)carbamate] | 50 to 100% | – | 50 to 100% |
| CCOc1ccccc1N1C(=O)CS/C1=N\C(=O)OC(C)Cc1ccc(-c2ncn(-c3ccc(OC(F)(F)F)cc3)n2)cc1 (stereo not shown) [A51, 1-(4-(1-(4-(Trifluoromethoxy)phenyl)-1H-1,2,4-triazol-3-yl)phenyl)propan-2-yl (Z)-(3-(2-ethoxyphenyl)-4-oxothiazolidin-2-ylidene)carbamate] | 50 to 100% | – | 50 to 100% |
| CCc1cccc(C)c1N1C(=O)CS/C1=N\C(=O)OC(C)Cc1ccc(-c2ncn(-c3ccc(OC(F)(F)F)cc3)n2)cc1 (stereo not shown) [A52, 1-(4-(1-(4-(Trifluoromethoxy)phenyl)-1H-1,2,4-triazol-3-yl)phenyl)propan-2-yl (Z)-(3-(2-ethyl-6-methylphenyl)-4-oxothiazolidin-2-ylidene)carbamate] | 50 to 100% | – | 50 to 100% |
| Cc1ccc(C(C)C)c(-n2ccs/c2=N\C(=O)OCCc2ccc(-c3ncn(-c4ccc(OC(F)(F)F)cc4)n3)cc2)c1 [A53, 4-(1-(4-(Trifluoromethoxy)phenyl)-1H-1,2,4-triazol-3-yl)phenethyl (Z)-(3-(2-isopropyl-5-methylphenyl)thiazol-2(3H)-ylidene)carbamate] | 50 to 100% | – | 50 to 100% |
| Cc1ccc(C(C)C)c(-n2ccs/c2=N\C(=O)OCC(F)c2ccc(-c3ncn(-c4ccc(OC(F)(F)F)cc4)n3)cc2)c1 (stereo not shown) [A54, 2-Fluoro-2-(4-(1-(4-(trifluoromethoxy)phenyl)-1H-1,2,4-triazol-3-yl)phenyl)ethyl (Z)-(3-(2-isopropyl-5-methylphenyl)thiazol-2(3H)-ylidene)carbamate] | 50 to 100% | – | 50 to 100% |
| Cc1ccc(C(C)C)c(-n2ccs/c2=N\C(=O)OC(C)Cc2ccc(-c3ncn(-c4ccc(OC(F)(F)F)cc4)n3)cc2)c1 (stereo not shown) [A55, 1-(4-(1-(4-(Trifluoromethoxy)phenyl)-1H-1,2,4-triazol-3-yl)phenyl)propan-2-yl (Z)-(3-(2-isopropyl-5-methylphenyl)thiazol-2(3H)-ylidene)carbamate] | 50 to 100% | – | 50 to 100% |
